According to patent publication US10131652B2, “Pyrimidinyloxy benzene derivatives as herbicides” (E. I. DU PONT DE NEMOURS AND COMPANY, priority 2014, dated 2018):
Where two headings read alike, the source gives them in different places.

Tests used:
Test in all cases: Test D pre-/postemergence plant response
Assay type in all cases: in vivo
[1] = system: winter wheat (Triticum aestivum); settings: Triticum aestivum, pre-emergence, Preemergence
In short: (§1)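 Seeds sown in loam–sand blend got preemergence sprays of test chemicals in a non-phytotoxic solvent with surfactant; postemergence sprays went on plants at 1- to 4-leaf stage (2 to 18 cm) in peat/vermiculite medium. After 13 to 15 days in greenhouse, visual injury versus controls scored 0 (no effect) to 100 (complete control).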

[2] = system: oilseed rape (Brassica napus); settings: Brassica napus; for plant injury at 16 g/ha: 16 g ai/ha; for plant injury at 31 g/ha: 31 g ai/ha; for plant injury at 62 g/ha: 62 g ai/ha; for plant injury at 125 g/ha: 125 g ai/ha
In short: as §1

[3] = system: galium (catchweed bedstraw, Galium aparine); settings: Galium; for pest or weed control at 16 g/ha: 16 g ai/ha; for pest or weed control at 31 g/ha: 31 g ai/ha; for pest or weed control at 62 g/ha: 62 g ai/ha; for pest or weed control at 125 g/ha: 125 g ai/ha
In short: as §1

[4] = system: ragweed (common ragweed, Ambrosia elatior); settings: Ambrosia artemisiifolia; for pest or weed control at 16 g/ha: 16 g ai/ha; for pest or weed control at 31 g/ha: 31 g ai/ha; for pest or weed control at 62 g/ha: 62 g ai/ha; for pest or weed control at 125 g/ha: 125 g ai/ha
In short: as §1

[5] = system: johnsongrass (Sorghum halepense); settings: Sorghum halepense; for pest or weed control at 16 g/ha: 16 g ai/ha; for pest or weed control at 31 g/ha: 31 g ai/ha; for pest or weed control at 62 g/ha: 62 g ai/ha; for pest or weed control at 125 g/ha: 125 g ai/ha
In short: as §1

[6] = pre-emergence, Preemergence, scale 0 to 100 (0 no effect, 100 complete control), read-out: Plant response rating, Oilseed Rape
[7] = post-emergence, Postemergence, scale 0 to 100, 0 no effect, 100 complete control, read-out: Plant response rating, Galium
[8] = pre-emergence, Preemergence, scale 0 to 100 (0 no effect, 100 complete control), read-out: Plant response rating, Galium
[9] = pre-emergence, Preemergence, scale 0 to 100 (0 no effect, 100 complete control), read-out: Plant response rating, Ragweed
[10] = post-emergence, Postemergence, scale 0 to 100, 0 no effect, 100 complete control, read-out: Plant response rating, Johnsongrass
[11] = pre-emergence, Preemergence, scale 0 to 100 (0 no effect, 100 complete control), read-out: Plant response rating, Johnsongrass

## FC(F)(F)c1cc(-c2ccccc2Oc2ncc(Cl)cn2)no1 [Compound 200, 5-chloro-2-[2-[5-(trifluoromethyl)-3-isoxazolyl]phenoxy]pyrimidine]
[1]; 125 g ai/ha, read-out: Plant response rating (scale 0 to 100), Wheat
  plant injury at 125 g/ha: 40%
[1]; 16 g ai/ha, scale 0 to 100 (0 no effect, 100 complete control), read-out: Plant response rating, Wheat
  plant injury at 16 g/ha: 0%
[1]; 31 g ai/ha, scale 0 to 100 (0 no effect, 100 complete control), read-out: Plant response rating, Wheat
  plant injury at 31 g/ha: 5%
[1]; 62 g ai/ha, scale 0 to 100 (0 no effect, 100 complete control), read-out: Plant response rating, Wheat
  plant injury at 62 g/ha: 20%
[2]; post-emergence, Postemergence, read-out: Plant response rating (scale 0 to 100), Oilseed Rape
  plant injury at 16 g/ha: 70%
[2]; post-emergence, Postemergence, scale 0 to 100 (0 no effect, 100 complete control), read-out: Oilseed Rape plant response rating
  plant injury at 31 g/ha: 85%
[2]; post-emergence, Postemergence, scale 0 to 100, 0 no effect, 100 complete control, read-out: Oilseed Rape plant response rating
  plant injury at 62 g/ha: 100%
[2]; post-emergence, Postemergence, scale 0 to 100, 0 no effect, 100 complete control, read-out: Plant response rating, Oilseed Rape
  plant injury at 125 g/ha: 100%
[2]; pre-emergence, Preemergence, read-out: Plant response rating (scale 0 to 100), Oilseed Rape
  plant injury at 125 g/ha: 100%
[2]; [6]
  plant injury at 16 g/ha: 85%
  plant injury at 31 g/ha: 100%
  plant injury at 62 g/ha: 100%
[3]; post-emergence, Postemergence, read-out: Plant response rating (scale 0 to 100), Galium
  pest or weed control at 16 g/ha: 75%
[3]; post-emergence, Postemergence, scale 0 to 100 (0 no effect, 100 complete control), read-out: Galium plant response rating
  pest or weed control at 31 g/ha: 100%
[3]; [7]
  pest or weed control at 62 g/ha: 100%
  pest or weed control at 125 g/ha: 100%
[3]; pre-emergence, Preemergence, read-out: Plant response rating (scale 0 to 100), Galium
  pest or weed control at 125 g/ha: 95%
[3]; [8]
  pest or weed control at 16 g/ha: 85%
  pest or weed control at 31 g/ha: 98%
  pest or weed control at 62 g/ha: 100%
[4]; post-emergence, Postemergence, read-out: Plant response rating (scale 0 to 100), Ragweed
  pest or weed control at 16 g/ha: 30%
[4]; post-emergence, Postemergence, scale 0 to 100 (0 no effect, 100 complete control), read-out: Ragweed plant response rating
  pest or weed control at 31 g/ha: 55%
[4]; post-emergence, Postemergence, scale 0 to 100, 0 no effect, 100 complete control, read-out: Ragweed plant response rating
  pest or weed control at 62 g/ha: 60%
[4]; post-emergence, Postemergence, scale 0 to 100, 0 no effect, 100 complete control, read-out: Plant response rating, Ragweed
  pest or weed control at 125 g/ha: 40%
[4]; pre-emergence, Preemergence, read-out: Plant response rating (scale 0 to 100), Ragweed
  pest or weed control at 125 g/ha: 80%
[4]; [9]
  pest or weed control at 16 g/ha: 0%
  pest or weed control at 31 g/ha: 5%
  pest or weed control at 62 g/ha: 70%
[5]; post-emergence, Postemergence, read-out: Plant response rating (scale 0 to 100), Johnsongrass
  pest or weed control at 16 g/ha: 15%
[5]; post-emergence, Postemergence, scale 0 to 100 (0 no effect, 100 complete control), read-out: Johnsongrass plant response rating
  pest or weed control at 31 g/ha: 20%
[5]; [10]
  pest or weed control at 62 g/ha: 45%
  pest or weed control at 125 g/ha: 40%
[5]; pre-emergence, Preemergence, read-out: Plant response rating (scale 0 to 100), Johnsongrass
  pest or weed control at 125 g/ha: 100%
[5]; [11]
  pest or weed control at 16 g/ha: 25%
  pest or weed control at 31 g/ha: 60%
  pest or weed control at 62 g/ha: 85%
